Article PMC3982047 (Nature, 2014)
One block for each compound: values may come before it. Peptide text beside a SMILES is read from it.

Assays:
AtNRT1.1 [1] = molecular target: AtNRT1.1 (Arabidopsis thaliana, UniProt Q05085, T101D); assay: microscale thermophoresis; type: binding
AtNRT1.1 [2] = molecular target: AtNRT1.1 (Arabidopsis thaliana, UniProt Q05085); assay: biochemical
PepTSo = PepTSo (Shewanella oneidensis, UniProt Q8EKT7); assay: microscale thermophoresis; type: binding
AtNRT1.1 [3] = molecular target: T1, AtNRT1.1 (Arabidopsis thaliana, UniProt Q05085); assay: microscale thermophoresis; type: binding
T1 sequence (Q05085 1-590): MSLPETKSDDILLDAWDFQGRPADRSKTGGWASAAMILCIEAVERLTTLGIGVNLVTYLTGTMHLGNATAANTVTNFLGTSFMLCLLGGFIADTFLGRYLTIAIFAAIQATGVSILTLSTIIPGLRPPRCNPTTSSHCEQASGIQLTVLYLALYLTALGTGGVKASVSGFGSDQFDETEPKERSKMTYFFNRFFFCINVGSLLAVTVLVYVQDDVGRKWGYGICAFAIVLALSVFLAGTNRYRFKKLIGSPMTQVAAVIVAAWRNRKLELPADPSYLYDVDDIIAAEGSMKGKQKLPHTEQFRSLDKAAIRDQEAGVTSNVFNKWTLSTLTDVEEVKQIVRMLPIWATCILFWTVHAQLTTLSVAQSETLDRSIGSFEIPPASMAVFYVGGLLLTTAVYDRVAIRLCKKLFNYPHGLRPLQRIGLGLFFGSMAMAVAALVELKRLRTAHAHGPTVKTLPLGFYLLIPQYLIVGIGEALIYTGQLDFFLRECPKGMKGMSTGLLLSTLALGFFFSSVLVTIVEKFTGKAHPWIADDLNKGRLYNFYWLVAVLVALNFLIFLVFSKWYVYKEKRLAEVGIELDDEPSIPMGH

[4] = molecular target: PepTSo, peptide transporter from Shewanella oniendensis (Shewanella oniendensis (so in the source)); assay: MST

Sequence of AtNRT1.1 (Arabidopsis thaliana, UniProt Q05085, T101D) (Q05085 whole entry T101D): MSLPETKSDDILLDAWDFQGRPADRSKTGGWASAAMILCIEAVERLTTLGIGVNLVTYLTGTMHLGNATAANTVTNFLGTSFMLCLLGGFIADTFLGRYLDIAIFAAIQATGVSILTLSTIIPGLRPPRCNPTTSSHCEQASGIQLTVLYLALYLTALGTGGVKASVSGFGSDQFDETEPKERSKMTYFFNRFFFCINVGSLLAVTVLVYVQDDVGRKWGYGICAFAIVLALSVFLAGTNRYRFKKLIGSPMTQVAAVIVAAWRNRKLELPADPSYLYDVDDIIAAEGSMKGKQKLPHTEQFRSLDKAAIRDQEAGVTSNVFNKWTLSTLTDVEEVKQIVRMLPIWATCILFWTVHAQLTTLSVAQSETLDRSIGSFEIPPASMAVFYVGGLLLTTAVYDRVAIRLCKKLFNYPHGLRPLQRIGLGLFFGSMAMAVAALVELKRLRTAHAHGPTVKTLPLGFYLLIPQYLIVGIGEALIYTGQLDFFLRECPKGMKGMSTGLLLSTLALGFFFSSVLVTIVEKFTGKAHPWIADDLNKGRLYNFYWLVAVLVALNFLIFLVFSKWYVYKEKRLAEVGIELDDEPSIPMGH

Compound: O=[N+]([O-])O [nitrate]
Kd (AtNRT1.1 [1]): 1 ± 0.12 mM
Kd (AtNRT1.1 [2]): 1 ± 0.15 mM

Compound: C[C@H](N)C(=O)N[C@@H](C)C(=O)O [Ala-Ala] (H-Ala-Ala-OH)
Kd (PepTSo): ~35 µM

Compound: [O-][Cl+2]([O-])O [chlorate]
Kd (AtNRT1.1 [3]): ~5 mM

Kd [4]: 35 µM
Compound: di-peptide Ala-Ala
